A word on the pIC50: it is the IC50 on a negative log10 scale, so that one unit is a factor of ten. Lower therefore signals a large IC50.

Here are results for two compounds from PMC6268547, “A New Ursane-Type Nor-Triterpenoid from the Leaves of Eucommia ulmoides Oliv” (Molecules, 2012).

The experiment addresses T1, protein tyrosine phosphatase 1B (PTP1B) (Homo sapiens, UniProt P18031).
T1 construct: gene PTPN1; Recombinant human GST-PTP1B
T1 sequence (P18031 1-435): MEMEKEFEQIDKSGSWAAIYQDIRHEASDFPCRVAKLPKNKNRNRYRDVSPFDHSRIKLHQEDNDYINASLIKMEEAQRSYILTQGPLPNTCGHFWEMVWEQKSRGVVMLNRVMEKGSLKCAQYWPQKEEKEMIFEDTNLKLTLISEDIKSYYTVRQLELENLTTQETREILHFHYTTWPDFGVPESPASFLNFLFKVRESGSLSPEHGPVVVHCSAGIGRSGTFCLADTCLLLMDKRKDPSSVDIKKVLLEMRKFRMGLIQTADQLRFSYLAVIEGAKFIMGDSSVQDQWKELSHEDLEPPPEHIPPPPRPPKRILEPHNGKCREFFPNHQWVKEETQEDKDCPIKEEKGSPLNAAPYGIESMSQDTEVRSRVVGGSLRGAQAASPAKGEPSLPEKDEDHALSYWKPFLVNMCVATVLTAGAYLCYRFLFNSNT
The experiment in a line: pNPP hydrolysis assay with purified GST-PTP1B, absorbance at […] nm. In kind it is biochemical.

pIC50: −log10 of the molar value.

`C[C@H]1[C@H](C)CC[C@]2(C(=O)O)CC[C@]3(C)C(=CC[C@@H]4[C@@]5(C)C[C@@H](O)[C@H](O)C(C)(C)[C@@H]5CC[C@]43C)[C@H]12` [compound 3, corosolic acid]: the pIC50 is 6.16.

For `C=C1[C@H](O)[C@H](O)C[C@]2(C)[C@H]3CC=C4[C@@H]5CC(C)(C)CC[C@]5(C(=O)O)CC[C@@]4(C)[C@]3(C)CC[C@@H]12` [compound 4, 2α,3α-dihydroxy-24-nor-4(23),12-oleanadien-28-oic acid], the pIC50 is 5.40.
